Test results published in US20200392462A1, “METHODS OF FORMING CARDIOMYOCYES” (THE REGENTS OF THE UNIVERSITY OF COLORADO, A BODY CORPORATE, priority 2018, published 2020).

Test: Inhibitor release study by HPLC
Format: physicochemical
Experimental: Inhibitor loading efficiency and release studies: All supernatants after initial loading of inhibitors were stored at −20° C. Supernatants were analyzed by reverse phase high performance liquid chromatography (HPLC). Inhibitor release studies were done sampling particle suspension inhibitor release up to 6 days. Briefly, drug release solution was prepared using 1 mL of 1×PBS, and 1 mL of 1% bovine serum albumin. The lyophilized pSi were suspended at a concentration of 3 mg/mL of drug release solution and incubated at 37° C. with constant stirring. At 1, 3, 5, 12 and every 24 hours thereafter, suspensions were centrifuged and 1 ml drug release solution was taken and replaced with fresh drug release solution. Agilent Zorbax Eclipse Plus C18 (100×4.6 mm, 3.5 um pore particle size) column was used for analysis. Samples flowed through the column at 1.0 ml/min and with a mobile phase consisting of acetonitrile in 0.1% trifluoroacedic acid: H2O in 0.1% trifluoroacedic acid (V/V). Samples were analyzed at 281 nm.

SMILES | cumulative release (from pSi, at 144 hours) [%] | cumulative release (from pSi, within the first 24 hours, 37° C., PBS/BSA) [%] | cumulative release (from pSi coated with 5 wt % PLGA 50:50, after 144 hours) [%] | cumulative release (from pSi coated with 5 wt % PLGA 50:50, end of 72 hours) [%] | cumulative release (from pSi coated with 5 wt % PLGA 50:50, within the first 48 hours) [%]
Cc1c[nH]c(-c2cnc(NCCNc3ccc(C#N)cn3)nc2-c2ccc(Cl)cc2Cl)n1 [CHIR99021] | ~100 | 81.1±5.3 | – | – | –
Cc1ccc2nc(NC(=O)CSc3nc4c(c(=O)n3-c3ccccc3)SCC4)sc2c1 [IWP2] | – | – | 56.4±7.2 | 40.2±9.1 | 27.8±7.2
